Assay [1] addresses T1, human neuropeptide Y5 receptor (Homo sapiens, UniProt Q15761).
T1 construct: expressed in transfected cells; membranes
T1 sequence (Q15761 1-445): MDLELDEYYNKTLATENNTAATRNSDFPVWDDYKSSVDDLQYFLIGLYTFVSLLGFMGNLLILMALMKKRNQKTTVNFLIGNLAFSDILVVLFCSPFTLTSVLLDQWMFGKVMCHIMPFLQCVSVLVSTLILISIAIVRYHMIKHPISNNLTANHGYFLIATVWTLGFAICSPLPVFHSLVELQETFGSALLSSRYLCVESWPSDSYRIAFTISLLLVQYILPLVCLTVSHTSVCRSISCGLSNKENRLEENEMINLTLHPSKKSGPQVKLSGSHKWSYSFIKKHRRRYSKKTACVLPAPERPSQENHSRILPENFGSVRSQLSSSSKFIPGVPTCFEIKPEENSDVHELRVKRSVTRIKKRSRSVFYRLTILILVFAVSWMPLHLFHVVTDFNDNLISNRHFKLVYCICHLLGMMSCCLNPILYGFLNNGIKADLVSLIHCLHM
In words: NPY5 HTS centrifugation assay: competition with 125I-PYY for binding to membranes of NPY5-transfected HEK293 cells. The settings on record: for inhibition at 0.3 µM: % inhibition of 125I-PYY binding at 300 nM compound, read-out: % Inh @ 300 nM; for inhibition at 3 µM: % inhibition of 125I-PYY binding at 3 uM compound. The procedure: NPY5 HTS Centrifugation Assay
The compounds described in this invention were evaluated for binding to the human neuropeptide Y5 receptor.
The human NPY5 receptor cDNA (Genbank Accession number U66275) was inserted into the vector pClneo (Invitrogen) and transfected into human embryonic kidney cells (HEK-293) via calcium phosphate method (Cullen 1987). Stably transfected cells were selected with G-418 (600 μg/mL). Stably transfected cells served as the source for the membranes for the NPY5 receptor binding assay.
NPY5-transfected HEK293 cells were grown to confluence in 150 cm^2 culture dishes. Cells were washed once with phosphate-buffered saline (Gibco Cat# 14040-133). Cells were then incubated in phosphate-buffered saline without calcium and without magnesium, supplemented with 2 mM EDTA. Cells were incubated for 10 minutes at room temperature and the cells were collected by repetitive pipeting. Cells were formed into pellets and then frozen at −80° C. until needed. Frozen pellets were homogenized with a polytron at full speed for 12 seconds in a homogenization buffer (20 mM Tris HCl, 5 mM EDTA, pH 7.4). Homogenates were centrifuged for 5 minutes at 4° C. at 200 g. Supernatants were transferred to corex tubes and centrifuged for 25 minutes at 28,000 g. Pellets were re-suspended in Binding (20 mM HEPES, 10 mM NaCl, 0.22 mM KH2PO4, 1.3 mM CaCl2, 0.8 mM MgSO4, pH 7.4). Membranes were kept on ice until use.
A competition binding assay, known to those skilled in the art, was used in which compounds of formula A compete with ^125I-PYY for binding to cell membranes. In simple terms, the less ^125I-PYY bound to the membranes implies that a compound is a good inhibitor (competitor). Bound ^125I-PYY is determined by centrifugation of membranes, aspirating supernatant, washing away residual ^125I-PYY and subsequently counting the bound sample in a gcounter.
Compounds to be tested were prepared as 10× stocks in binding buffer and added first to assay tubes (RIA vials, Sarstedt). Twenty (20) μL of each 10× compound stock is pipeted into vials and 80 μL of ^125I-PYY (NEN catalog number NEX240), which has been diluted to a concentration of 200 pM in 0.25% BSA in binding buffer, is added to the compound tubes (final concentration of ^125I-PYY is 80 pM). To each tube is added 100 μL of membranes and the mixture is agitated by pipeting 2 times. Samples are incubated for 1 hr at room temperature. Aluminum cast plates (Sarstedt) containing the vials are then centrifuged 10 minutes at 3200 rpm in a Sorvall RT6000. Supernatant is then aspirated. To each vial 400 μL PBS is added and this is then aspirated again. Vials are then put in carrier polypropylene 12×75 tube and counted in gamma counter (Packard). Non-specific binding is determined in the presence of 300 nM NPY. Percent inhibition of ^125I-PYY binding is calculated by subtracting non-specific binding from the test samples (compound (I)), taking these counts and dividing by total binding, and multiplying by 100. Inhibitory concentration values (IC50) of compounds that show appreciable inhibition of ^125I-PYY binding are calculated by obtaining percent inhibition of ^125I-PYY binding values at different concentrations of the test compound, and using a graphing program such as GraphPad Prism (San Diego, Calif.) to calculate the concentration of test compound that inhibits fifty-percent of ^125I-PYY binding (Table 4).

The test system of a further assay is Food-Deprived Rats. Briefly: Rodent feeding model: measurement of food intake in food-deprived rats. In kind it is in vivo, Male Long-Evans rats. The settings on record: for Food Consumption (avg. grams) 0-2 h / Food Consumption (avg. grams) 0-4 h / Food Consumption (avg. grams) 0-6 h / Food Consumption (avg. grams) 2-6 h: 18 h fasted rats; for Food Consumption 0-2 h (% chg.) / Food Consumption 0-4 h (% chg.) / Food Consumption 0-6 h (% chg.) / Food Consumption 2-6 h (% chg.): change vs vehicle, negative = reduction. The text has this: Measurement of Food Intake in Food-Deprived Rats
Male Long-Evans rats (180-200 grams) are housed individually and are maintained on once-a-day feeding schedule (i.e., 10 a.m. until 4 p.m.) for five days following quarantine to allow the animals to acclimate to feeding on powdered chow (#5002 PMI Certified Rodent Meal) during the allotted time. The chow is made available in a open jar, anchored in the cage by a wire, with a metal follower covering the food to minimize spillage. Water is available ad-libitum.
Animals are fasted for 18 hours prior to testing. At the end of the fasting period, animal are administered either compounds of the invention or vehicle. Vehicle and test compounds are administered either orally (5 mL/kg) 60 minutes prior to the experiment, or 30 minutes prior when given subcutaneously (1 mL/kg) or intraperitoneally (1 mL/kg). Compounds of the invention are administered orally as a suspension in aqueous 0.5% methylcellulose-0.4% Tween 80, or intraperitoneally as a solution or suspension in PEG 200; compound concentrations typically range from 1 mg/kg to 100 mg/kg, preferably from 10-30 mg/kg. Food intake is measured at 2, 4, and 6 hours after administration by weighing the special jar containing the food before the experiment and at the specified times. Upon completion of the experiment, all animals are given a one-week washout period before retesting.
Percent reduction of food consumption is calculated subtracting the grams of food consumed by the treated group from the grams of food consumed by the control group divided by the grams of food consumed by the control group, multiplied by 100. A negative value indicates a reduction in food consumption and a positive value indicates an increase in food consumption. [formula]

Counter-ions that a name gives are not always drawn.

In the case of `COc1ccc2c(c1)CC[C@@H]1N=C(NC[C@H]3CC[C@H](CNS(=O)(=O)c4ccccc4)CC3)C[C@H]21` (relative stereo) [Compound 8, N-[[trans-4-[[(cis-3a,4,5,9b-tetrahydro-7-methoxy-1H-benz[e]indol-2-yl)amino]methyl]cyclohexyl]methyl]benzenesulfonamide], in assay [1], the inhibition at 0.3 µM amounted to 85% and the inhibition at 3 µM came out at 98%. In addition, in the assay with Food-Deprived Rats (10 mg/kg i.p.), the “Food Consumption (avg. grams) 0-2 h” value is given as 4.38 g, the “Food Consumption 0-2 h (% chg.)” value was “(−52%)”, the “Food Consumption (avg. grams) 0-4 h” value came out at 7.88 g and the “Food Consumption 0-4 h (% chg.)” value was “(−38%)”. In the assay with Food-Deprived Rats (10 mg/kg i.p.), the “Food Consumption (avg. grams) 0-6 h” value is given as 12.00 g, the “Food Consumption 0-6 h (% chg.)” value is given as “(−43%)”, the “Food Consumption (avg. grams) 2-6 h” value was found to be 7.63 g and the “Food Consumption 2-6 h (% chg.)” value is “(−37%)”.

Turning to `O=S(=O)(NC[C@H]1CC[C@H](CNC2=N[C@@H]3CCc4cc(O)ccc4[C@@H]3C2)CC1)c1ccccc1` [Compound 10, N-[[trans-4-[[(cis-3a,4,5,9b-ttrahydro-7-hydroxy-1H-benz[e]indol-2-yl)amino]methyl]cyclohexyl]methyl]benzenesulfonamide hydrochloride], in assay [1], the inhibition at 0.3 µM amounted to 74% and the inhibition at 3 µM turned out to be 97%. In the assay on Food-Deprived Rats (30 mg/kg i.p.), the “Food Consumption (avg. grams) 0-2 h” value came to 4.38 g, the “Food Consumption 0-2 h (% chg.)” value is “(−57%)”, the “Food Consumption (avg. grams) 0-4 h” value is 6.43 g and the “Food Consumption 0-4 h (% chg.)” value is listed as “(−53%)”. For the same compound, in the assay on Food-Deprived Rats (30 mg/kg i.p.), the “Food Consumption (avg. grams) 0-6 h” value amounted to 10.75 g, the “Food Consumption 0-6 h (% chg.)” value is listed as “(−49%)”, the “Food Consumption (avg. grams) 2-6 h” value turned out to be 6.37 g and the “Food Consumption 2-6 h (% chg.)” value is “(−41%)”.
